Assay results taken from US20060247320A1, “Compounds for inhibiting KSP kinesin activity” (priority 2005, published 2006).

These molecules were tested against T1, KSP motor domain (Homo sapiens, UniProt P52732) (assay: biochemical). Conditions: KSP inhibitory activity, end-point assay; class symbols (Table 1).
T1 sequence (P52732 18-359 limits assumed): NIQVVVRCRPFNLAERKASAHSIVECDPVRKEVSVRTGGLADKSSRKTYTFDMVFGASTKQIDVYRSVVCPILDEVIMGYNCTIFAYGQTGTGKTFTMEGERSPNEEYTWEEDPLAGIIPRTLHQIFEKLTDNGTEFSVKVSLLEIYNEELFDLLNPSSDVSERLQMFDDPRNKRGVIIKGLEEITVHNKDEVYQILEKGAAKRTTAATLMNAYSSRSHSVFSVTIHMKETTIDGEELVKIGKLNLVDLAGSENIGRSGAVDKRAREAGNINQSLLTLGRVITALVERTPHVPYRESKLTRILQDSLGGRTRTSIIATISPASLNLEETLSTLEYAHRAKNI

| SMILES | IC50 (nM) |
| --- | --- |
| CC(C)(C)C1CCc2nc3sc(NC=O)nc3cc2C1 (stereo not drawn) [Example 134, N-(7-tert-Butyl-5,6,7,8-tetrahydrothiazolo[5,4-b]quinolin-2-yl)-formamide] | B/C |
| CC(C)(C)C1CCc2nc3sc(C(=N)N)cc3cc2C1 (stereo not drawn) [Example 69, 6-tert-butyl-5,6,7,8-tetrahydrothieno[2,3-b]quinoline-2-carboxamidine] | B/C |

Same assay, conditions: KSP inhibitory activity, end-point assay; class symbols (Table 1); read-out: IC50

| SMILES | IC50 [nM] |
| --- | --- |
| CC(C)(C)C1CCc2nc3sc(C(=O)NCC4CCNCC4)cc3cc2C1 (stereo not drawn) [Example 195, 6-(1,1-Dimethylethyl)-5,6,7,8-Tetrahydro-N-(4-Piperidinylmethyl)thieno[2,3-b]quinoline-2-Carboxamide] | 1000 to 10000 |
| CC(C)(C)C1CCc2nc3sc(C(=O)Nc4ccncc4)cc3cc2C1 (stereo not drawn) [Example 226C] | 100 to 1000 |
| CC(C)(C)C1CCc2nc3sc(C(=O)N[C@H](C#N)c4ccccc4)cc3cc2C1 (stereo partly drawn) [Example 165] | > 10000 |
| CC(C)(C)C1CCc2nc3sc(C(=O)N[C@H](C#N)Cc4ccccc4)cc3cc2C1 (stereo partly drawn) [Example 163, 6-tert-Butyl-5,6,7,8-tetrahydrothieno[2,3-b]quinoline-2-carboxylic acid [(1S)-1-cyano-2-phenylethyl)amide] | > 10000 |
| CCC(C)(C)C1CCc2nc3sc(C#N)c(N)c3cc2C1 (stereo not drawn) [Example 12] | < 100 |
| CCC1Cc2nc3sc(C#N)c(N)c3cc2CC1C(C)(C)C (stereo not drawn) [Example 205, 3-Amino-6-tert-butyl-7-ethyl-5,6,7,8-tetrahydrothieno[2,3-b]quinoline-2-carbonitrile] | 1000 to 10000 |
| Cc1cc(C(=O)Nc2ccc([C@@H](CN)NC(=O)c3cc4cc5c(nc4s3)CC[C@@H](C(C)(C)C)C5)cc2)no1 [Example 274] | < 100 |
| CC(CO)NC(=O)c1cc2cc3c(nc2s1)CCC(C(C)(C)C)C3 (stereo not drawn) [Example 82] | 1000 to 10000 |
| CN(C)Cc1cc2cc3c(nc2s1)CCC(C(C)(C)C)C3 (stereo not drawn) [Example 152] | 1000 to 10000 |
| CC(C)(C)[C@@H]1CCc2nc3sc(C(=O)N[C@H](CN)c4cccc(NC(=O)c5cnn[nH]5)c4)cc3cc2C1 [Example 253] | 100 to 1000 |
| CC(C)C1Cc2cc3cc(C(N)=O)sc3nc2CC1C (stereo not drawn) [Example 209, 6-isopropyl-7-methyl-5,6,7,8-tetrahydro-thieno[2,3,-b]quinoline-2-carboxylic acid amide] | 100 to 1000 |
| CC(C)(C)C1CCc2nc3sc(C#N)cc3cc2C1 (single isomer, unassigned) [Example 62] | 100 to 1000 |
| CC(C)(C)[C@@H]1CCc2nc3sc(C(=O)N[C@H](CN)c4cccc(NC(=O)c5c[nH]cn5)c4)cc3cc2C1 [Example 248] | < 100 |
| CC(C)(C)[C@@H]1CCc2nc3sc(C(=O)N[C@H](CN)c4cccc(NC(=O)c5ccno5)c4)cc3cc2C1 [Example 231, 6(R)-tert-butyl-5,6,7,8-tetrahydro-thieno[2,3-b]quinoline-2-carboxylic acid (2-amino-1(S)-{3-[(isoxazole-5-carbonyl)-amino]-phenyl}-ethyl)-amide] | < 100 |
| CC(C)(C)C1CCc2nc3sc(-c4ncc(CO)[nH]4)cc3cc2C1 (stereo not drawn) [Example 183, [2-(6-tert-Butyl-5,6,7,8-tetrahydrothieno[2,3-b]quinolin-2-yl)-3H-imidazol-4-yl]methanol] | 1000 to 10000 |
| N#Cc1sc2nc3c(cc2c1N)CN(Cc1ccccc1)CC3 [Example 56] | > 10000 |
| Cn1cncc1C(=O)Nc1cccc([C@@H](CN)NC(=O)c2cc3cc4c(nc3s2)CC[C@@H](C(C)(C)C)C4)c1 [Example 251] | < 100 |
| CC(C)C(C(C)C)C1CCc2nc3sc(C#N)c(N)c3cc2C1 (stereo not drawn) [Example 24] | 1000 to 10000 |
| CC(C)(C)C1CCc2nc3sc(S(N)(=O)=O)cc3cc2C1 (stereo not drawn) [Example 123, 6-tert-Butyl-5,6,7,8-tetrahydrothieno[2,3-b]quinoline-2-sulfonic acid amide] | 100 to 1000 |
| Cn1ccc(C(=O)Nc2cccc([C@@H](CNCCO)NC(=O)c3cc4cc5c(nc4s3)CC[C@@H](C(C)(C)C)C5)c2)n1 [Example 268] | < 100 |
| CC(C)(C)C1CCc2nc3sc(CC#N)cc3cc2C1 (stereo not drawn) [Example 148] | 1000 to 10000 |
| CC(C)(C)C1CCc2nc3sc(CNC(N)=O)cc3cc2C1 (stereo not drawn) [Example 156] | 100 to 1000 |
| CC(C)(C)C1CCc2nc3sc(CNCc4cc5cc6c(nc5s4)CCC(C(C)(C)C)C6)cc3cc2C1 (stereo not drawn) [Example 150] | 1000 to 10000 |
| CC(C)(C)C1CCc2nc3sc(C(N)=O)nc3cc2C1 (stereo not drawn) [Example 131, 7-tert-Butyl-5,6,7,8-tetrahydrothiazolo[5,4-b]quinoline-2-carboxylic acid amide] | 100 to 1000 |
| CC(C)(C)C1CCc2nc3sc(C(=O)NCc4ccccc4)cc3cc2C1 (stereo not drawn) [Example 78] | > 10000 |
| CC(C)(C)C1CCc2nc3sc(C(=O)NCCN)c(N)c3cc2C1 (stereo not drawn) [Example 193, 3-Amino-N-(2-Aminoethyl)-6-(1,1-Dimethylethyl)-5,6,7,8-Tetrahydrothieno[2,3-b]quinoline-2-Carboxamide] | 1000 to 10000 |
| CC(C)(C)C1CCc2nc3sc(C(=O)N[C@H](CN)c4cccc(-c5ccccc5)c4)cc3cc2C1 (stereo partly drawn) [Example 211, 6-tert-butyl-5,6,7,8-tetrahydro-thieno[2,3-b]quinoline-2-carboxylic acid [(1S)-2-amino-1-biphenyl-3-yl-ethyl)-amide] | 100 to 1000 |

| SMILES | IC50 [nM] |
| --- | --- |
| CC1Cc2nc3sc(C#N)cc3cc2CC1C(C)(C)C (stereo not drawn) [Example 203, 6-tert-Butyl-7-methyl-5,6,7,8-tetrahydro-thieno[2,3,-b]quinoline-2-carbonitrile] | 100 to 1000 |
| CC(C)(C)C1CCc2nc3sc(C(=O)Nc4ccc(O)c(N)c4)cc3cc2C1 (stereo not drawn) [Example 226H] | 100 to 1000 |
| CC(C)(C)C1CCc2nc3sc(C(=O)NO)cc3cc2C1 (stereo not drawn) [Example 104, 6-tert-Butyl-5,6,7,8-tetrahydrothieno[2,3-b]quinoline-2-carboxylic acid hydroxyamide] | < 100 |
| CC(C)(C)C1CCc2nc3sc(-c4ncc(CN)o4)cc3cc2C1 (stereo not drawn) [Example 186, [2-(6-tert-Butyl-5,6,7,8-tetrahydrothieno[2,3-b]quinolin-2-yl)oxazol-5-yl]methylamine] | 1000 to 10000 |
| CC(C)(C)C1CCc2nc3sc(C(=O)O)cc3cc2C1 (stereo not drawn) [Example 73, 6-tert-Butyl-5,6,7,8-tetrahydrothieno[2,3-b]quinoline-2-carboxylic acid] | > 10000 |
| CC(C)(C)CC1CCc2nc3sc(C#N)c(N)c3cc2C1 (stereo not drawn) [Example 25] | 100 to 1000 |
| CC(C)(C)C1CCc2nc3sc(C(=O)N[C@H](CN)c4cccc(-c5ccncc5)c4)cc3cc2C1 (stereo partly drawn) [Example 212, 6-tert-butyl-5,6,7,8-tetrahydro-thieno[2,3-b]quinoline-2-carboxylic acid [(1S)-2-amino-1-(3-pyridin-4-yl-phenyl)-ethyl]-amide] | 100 to 1000 |
| CC(C)(C)C1CCc2nc3sc(S(C)(=O)=O)c(O)c3cc2C1 (stereo not drawn) [Example 121, 6-tert-Butyl-2-methanesulfonyl-5,6,7,8-tetrahydrothieno[2,3-b]quinolin-3-ol] | > 10000 |
| N#Cc1sc2nc3c(cc2c1N)CCCC3 [Example 45] | > 10000 |
| CC1CCc2nc3sc(C#N)c(N)c3cc2C1 (stereo not drawn) [Example 13] | > 10000 |
| CC(C)(C)C1CCc2nc3sc(C(=O)NC(CN)c4cccc(NC(=O)c5cnccn5)c4)cc3cc2C1 (stereo not drawn) [Example 227, 6-tert-Butyl-5,6,7,8-tetrahydrothieno[2,3-b]quinoline-2-carboxylic acid (2-amino-1-{3-[(pyrazine-2-carbonyl)amino]phenyl}ethyl)amide] | < 100 |
| CNc1nsnc1C(=O)Nc1cccc([C@@H](CN)NC(=O)c2cc3cc4c(nc3s2)CC[C@@H](C(C)(C)C)C4)c1 [Example 256] | < 100 |
| CC[C@H](NC(=O)c1cc2cc3c(nc2s1)CCC(C(C)(C)C)C3)C(=N)N (stereo partly drawn) [Example 170] | 100 to 1000 |
| CC(C)(C)C1CCc2nc3sc(CCl)cc3cc2C1 (stereo not drawn) [Example 145] | 100 to 1000 |
| CC(C)(C)C1CCc2cc3cc(C(N)=O)sc3nc2CC1 (stereo not drawn) [Example 66] | 1000 to 10000 |
| COc1ccc([C@@H](CN)NC(=O)c2cc3cc4c(nc3s2)CCC(C(C)(C)C)C4)cc1 (stereo partly drawn) [Example 219] | < 100 |
| CC(C)(C)[C@@H]1CCc2nc3sc(C(=O)N[C@H](CN)c4cccc(NC(=O)c5ccns5)c4)cc3cc2C1 [Example 235] | < 100 |
| CC[C@@H](CO)NC(=O)c1cc2cc3c(nc2s1)CCC(C(C)(C)C)C3 (stereo partly drawn) [Example 158] | > 10000 |
| CC(C)[C@@H](CN)NC(=O)c1cc2cc3c(nc2s1)CCC(C(C)(C)C)C3 (stereo partly drawn) [Example 175, 6-tert-butyl-5,6,7,8-tetrahydrothieno[2,3-b]quinoline-2-carboxylic acid [(1S)-1-aminomethyl-2-methylpropyl)amide] | 1000 to 10000 |
| COCc1cc2cc3c(nc2s1)CCC(C(C)(C)C)C3 (stereo not drawn) [Example 146] | 1000 to 10000 |
| CCNC(=O)c1cc2cc3c(nc2s1)CCC(C(C)(C)C)C3 (stereo not drawn) [Example 79] | 1000 to 10000 |
| CC(C)(C)C(C)(C)C1CCc2nc3sc(C#N)c(N)c3cc2C1 (stereo not drawn) [Example 9] | 1000 to 10000 |
| CCC(CC)(CC)C1CCc2nc3sc(C#N)c(N)c3cc2C1 (stereo not drawn) [Example 5] | 1000 to 10000 |
| CC(=O)Nc1nc2cc3c(nc2s1)CCC(C(C)(C)C)C3 (stereo not drawn) [Example 135, N-(7-tert-Butyl-5,6,7,8-tetrahydrothiazolo[5,4-b]quinolin-2-yl)acetamide] | 100 to 1000 |
| CC(C)(C)C1CCc2nc3sc(C(=O)Nc4cccc(N)c4)cc3cc2C1 (stereo not drawn) [Example 226D] | 100 to 1000 |
| CC(C)(C)C1CCc2nc3sc(-c4ncc(CO)o4)cc3cc2C1 (stereo not drawn) [Example 185, [2-(6-tert-Butyl-5,6,7,8-tetrahydrothieno[2,3-b]quinolin-2-yl)oxazol-5-yl]methanol] | 1000 to 10000 |

Same assay, conditions: exact IC50 values, end-point assay (Table 2); read-out: IC50

| SMILES | IC50 [nM] |
| --- | --- |
| CC(C)(C)C1CCc2nc3sc(C(=O)NC(CN)c4cccc(NC(=O)c5cnccn5)c4)cc3cc2C1 (stereo not drawn) [Example 227, 6-tert-Butyl-5,6,7,8-tetrahydrothieno[2,3-b]quinoline-2-carboxylic acid (2-amino-1-{3-[(pyrazine-2-carbonyl)amino]phenyl}ethyl)amide] | 21 |
| CC(C)(C)[C@@H]1CCc2nc3sc(C(=O)N[C@H](CN)c4cccc(NC(=O)c5ccns5)c4)cc3cc2C1 [Example 235] | 23 |
